Experimental data reported in article PMC6143625, “A high throughput screen for next-generation leads targeting malaria parasite transmission” (Nature Communications, 2018).

Tests used:
[1] = system: P. falciparum stage V male gametocytes (male gamete formation); test: P. falciparum dual gamete formation assay (Pf DGFA), male readout (exflagellation), 48 h carry-over format; assay type: cell-based, Plasmodium falciparum NF54; settings: for %Inhibition Male @2uM: primary screen, 48 h incubation, single replicate; for Male IC50 / IC50: SAR, Fig. 6 and Fig. 7; for IC50: Plasmodium falciparum, read-out: Male IC50; for Selectivity: parasite selectivity compared to Tox50 in HepG2 cells
Description: (§1) P. falciparum NF54 strain (originally isolated from an imported malaria case in the Netherlands in the 1980s; BEI Resources, cat. no. MRA-1000) asexual and sexual stages culture was performed as previously described. Gametocyte cultures were initiated at 1% asexual ring stage parasitaemia and 4% haematocrit in 40 ml final volume. To induce gametocyte production, complete culture medium (CM) (RPMI 1640 supplemented with 25 mM HEPES, 50 µg ml^−1 hypoxanthine, 2 g l^−1 NaHCO3 and 10% pooled human male type A+ serum) was replaced daily for 14 days without fresh erythrocyte addition. Human serum was obtained from Interstate Blood Bank, A^+ serotype; no aspirin 2 h before drawing and no antimalarials 2 weeks before drawing. On day 14 after culture induction, gametocyte production was assessed by thin smear and Giemsa staining, and exflagellation accurately counted in a haemocytometer. Gametocyte cultures with >0.2% exflagellation (compared to total erythrocyte cell number) were deemed acceptable for use in the Pf DGFA. Note, all human biological samples were sourced ethically and their research use was in accord with the terms of the informed consents under an IRB/EC approved protocol.
(§2) In screening mode, the assay was performed as described in Delves et al.[35] with a mean Z′ factor of 0.56 ± 0.14 (SD) (male) and 0.71 ± 0.17 (SD) (female). Pooled mature gametocyte cultures with the capacity to yield >0.2% exflagellation (of total cells) were diluted in CM to 14 million cells per ml and so that 700,000 cells were dispensed in 50 µl into each well of the warmed 384-well screening plates. Parasites were incubated in the plates with compounds for 48 h in a humidified chamber under 92%N2/5% CO2/3% O2 gas mix before gamete formation was triggered by addition of 10 µl per well ookinete medium (RPMI 1640 supplemented with 25 mM HEPES, 50 µg ml^−1 hypoxanthine, 2 g l^−1 NaHCO3, 100 µM xanthurenic acid) containing 0.5 µg ml^−1 anti-Pfs25 clone 4B7 (BEI Resources, cat. no. MRA-315) conjugated to the fluorophore Cy3 (GE Healthcare), and also by cooling the plate at 4 °C for 4 min and then a further 5 min at 28 °C. Exflagellation was recorded immediately by brightfield microscopy using a Nikon Ti-E widefield microscope at ×4 objective, ×1.5 zoom, recording a 10-frame video time-lapse over 2 s for each well. Afterwards, plates were incubated in the dark at 28 °C for a further 24 h to allow female gametes to maximally express Pfs25 on their surface. Female gamete formation was recorded by single-image fluorescence microscopy using the same microscope and magnification as above. Exflagellation and female gamete formation were quantified by specific algorithms designed with the open-source ICY Image Analysis software.
(§3) Assay performance statistics, such as signal to background ratio, Z′ and robust 3×SD activity cut-off were calculated using templates in ActivityBase XE (IDBS, Guilford, Surrey, UK). Hit population analysis and visualisation were conducted using Spotfire DecisionSite (Spotfire, Inc., Somerville, Massachusetts). The pIC50 (−log IC50) values were obtained using the ActivityBase XE nonlinear regression function in the full curve analysis bundle. In screening mode, the Pf DGFA achieved a mean Z′ factor of 0.56 ± 0.14 (SD) (male) and 0.71 ± 0.17 (SD) (female).

[2] = system: P. falciparum stage V female gametocytes (female gamete formation); test: P. falciparum dual gamete formation assay (Pf DGFA), female readout (Pfs25 expression), 48 h carry-over format; assay type: cell-based, Plasmodium falciparum NF54; settings: primary screen, 2 uM, 48 h incubation, single replicate
Description: as §1
as §2, with “Parasites were incubated in the plates with compounds for 48 h in a humidified chamber under” left out
as §3

Male IC50 [1]	IC50 [1]	Compound	%Inhibition Male @2uM [1]	%Inhibition Female @2uM [2]	Selectivity [1]
–	–	Cc1ccc(-c2noc(C(C)NS(C)(=O)=O)n2)cc1 (stereo not drawn) [DDD01025633]	37.79%	<30%	–
–	–	Cc1ccc(C(=O)N2CC[C@@]3(O)CCCC[C@H]3C2)cc1 [DDD01026498]	<30%	36.05%	–
–	–	Cn1c(CN2CCCCCC2)cc(=O)c(O)c1CN1CCCC1 [DDD01027184]	31.50%	<30%	–
–	–	NC(=O)Cn1c(CO)cnc1SCc1ccccc1Cl [DDD01027486]	<30%	30.58%	–
–	–	O=C(Nc1ncnc2c1CCC2)c1cccc(F)c1 [DDD01027506]	<30%	33.11%	–
–	–	COCCc1nnc(NC(=O)CSCc2ccccc2)o1 [DDD01027773]	33.86%	<30%	–
–	–	O=S(=O)(c1ccccc1Br)N1CCC2(CC1)OCCS2 [DDD01027971]	<30%	31.22%	–
–	–	C1CCN(c2nc(N3CCOCC3)nc3n[nH]nc23)CC1 [DDD01027997]	<30%	37.52%	–
–	–	Cc1cccc(CS(=O)(=O)NCc2nn(C)c3c2COCC3)c1 [DDD01028624]	<30%	40.92%	–
–	–	CNC(=O)[C@@H]1COC[C@H]2CN(C(=O)c3ccc(OC)cc3)C[C@H]21 [DDD01030727]	<30%	30.90%	–
–	–	Cc1cnc(N2CCC[C@@H]3CN(CC(=O)N(C)C)C[C@@H]32)nc1 [DDD01031282]	<30%	34.01%	–
–	–	O=C(Cc1ccsc1)N1C[C@@H]2OCCN(c3cnccn3)[C@@H]2C1 [DDD01031297]	<30%	38.82%	–
–	–	CCn1ncc2c1C(COC)N(C(=O)c1ccc3c(c1)OCO3)CC2 (stereo not drawn) [DDD01031312]	<30%	34.92%	–
–	–	COCCN1CCO[C@@H]2CN(C(=O)NCc3cccnc3)CC[C@@H]2C1 [DDD01031413]	<30%	31.80%	–
–	–	c1cc(CNCC2Cn3nncc3CO2)co1 (stereo not drawn) [DDD01031485]	<30%	38.17%	–
–	–	Cc1ccc(CN2CCCC3(CCN(Cc4ccoc4)CC3)C2)cc1 [DDD01031609]	<30%	33.18%	–
–	–	Cc1ccc(N2CC[C@@H]3[C@@H]2CCN3C(=O)c2cscn2)nn1 [DDD01031738]	<30%	32.44%	–
–	–	CN1CCN(C(=O)c2cc3c(s2)CCN3C(=O)C2CC2)CC1 [DDD01031830]	<30%	50.73%	–
–	–	CO[C@H]1CC[C@H]2[C@H]1OCCN2Cc1ccc(F)c(F)c1 [DDD01032445]	37.39%	<30%	–
–	–	O=C(O)c1nnn(-c2cc(F)cc(F)c2)c1-c1ccncc1 [DDD01034739]	<30%	37.18%	–
–	–	Cc1cc2c(cc1NC(N)=O)OCO2 [DDD01037848]	<30%	32.47%	–
–	–	O=C(NCc1ccco1)c1[nH]nc2c1CS(=O)(=O)CC2 [DDD01037866]	48.15%	<30%	–
–	–	CCn1nc(C)c2nc(C)nc(NCCc3ccccc3)c21 [DDD01038123]	<30%	30.36%	–
–	–	CCn1cc(CN2CCN(C(=O)c3cc(C)c(C)s3)CC2)c(C)n1 [DDD01038373]	<30%	36.25%	–
–	–	CCN1CCN(C(=O)C2CC(=O)N(c3cnn(C(C)C)c3)C2)CC1 (stereo not drawn) [DDD01038633]	42.61%	<30%	–
–	–	Cc1ccc2c(c1)c(C)cc(=O)n2CCCN [DDD01038649]	<30%	33.62%	–

Male IC50 [1]	IC50 [1]	Compound	%Inhibition Male @2uM [1]	%Inhibition Female @2uM [2]	Selectivity [1]
–	–	COc1ccc(NC(=O)c2cnc(C3CCN(C)CC3)nc2C)cc1 [DDD01056828]	33.07%	<30%	–
Inactive	–	CC(=O)Nc1ccc(Br)cc1 [compound 7683]	–	–	–
–	2.41 µM	O=C(CCl)Nc1ccccc1 [compound 11485]	–	–	21
–	3.39 µM	Cc1ccc(NC(=O)CCl)cc1 [compound 27967]	–	–	15
–	2.21 µM	COc1cccc(NC(=O)CCl)c1 [compound 28667]	–	–	14
–	2.66 µM	COc1ccc(NC(=O)CCl)cc1 [compound 31123]	–	–	24
–	6.41 µM	CN(C(=O)CCl)c1ccccc1 [compound 75797]	–	–	2
–	10.4 µM	Cc1ccccc1NC(=O)CCl [compound 101479]	–	–	10
–	1.63 µM	O=C(CCl)N1CCc2ccccc21 [compound 176897]	–	–	8
–	11.2 µM	O=C(CCl)Nc1ccccc1Cl [compound 222444]	–	–	7
–	4.03 µM	O=C(CCl)Nc1ccc(Cl)cc1Cl [compound 225998]	–	–	21
–	1.95 µM	O=C(CCl)Nc1ccc(O)cc1 [compound 236323]	–	–	> 51
–	5.84 µM	Cc1cc(Cl)ccc1NC(=O)CCl [compound 249708]	–	–	> 17
–	4.5 µM	Cc1cccc(NC(=O)CCl)c1 [compound 296325]	–	–	18
Inactive	–	O=C(CCl)Nc1ccccc1O [compound 350567]	–	–	–
Inactive	–	O=C(Nc1ccc(Br)cc1)C(Cl)Cl [compound 532122]	–	–	–
Inactive	–	O=C1C(Cl)=C(Cl)C(=O)N1c1ccc(Br)cc1 [compound 779209]	–	–	–
–	5.25 µM	N#Cc1ccccc1NC(=O)CCl [compound 819001]	–	–	> 19
Inactive	–	NCC(=O)Nc1ccc(Br)cc1 [compound 871334]	–	–	–
–	3.26 µM	O=C(CCl)Nc1ccccc1F [compound 1522874]	–	–	> 31
–	4.77 µM	Cc1cc(Br)ccc1NC(=O)CCl [compound 2097895]	–	–	4
–	12.1 µM	CC(C)c1cc(Br)ccc1NC(=O)CCl [compound 4066920]	–	–	2
Inactive	–	Cc1cc(Br)ccc1NC(=O)CCCCl [compound 19226390]	–	–	–
–	2.08 µM	O=C(CCl)Nc1ccc(CO)cc1 [compound 22457525]	–	–	> 48
Inactive	–	COC(=O)Nc1ccc(NC(=O)CCl)cc1 [compound 43701226]	–	–	–

Compound	Male IC50 [1]	IC50 [1]	%Inhibition Male @2uM [1]	%Inhibition Female @2uM [2]	Selectivity [1]
O=C(Nc1ccc(Br)cc1Cl)C(Cl)(Cl)Cl [compound 2725563]	Inactive	–	–	–	–
